Data as given in US8865641B2, “Methods of treatment of fatty liver disease by pharmacological activation of cholinergic pathways” (priority 2011, dated 2014).

Legend:
Assay type in all cases: in vivo, C57BL/6J mice
[1] = test system: mice with high-fat diet-induced obesity; test: Glucose tolerance test (GTT) in high-fat diet-fed mice; settings: HFD-G as compared to HFD-S mice
Protocol: (§1) Separate groups of mice were fed and treated and body weights and food intake recorded as described above (in Experimental design). At the end of the 12 week period, mice from the three experimental groups were used in the insulin sensitivity and glucose tolerance tests. In the insulin sensitivity test, after an overnight (18 hours) fast, mice (n=10 per group) were weighed and administered i.p. with insulin (Humulin R, Lilly, 0.5 units/kg). In the glucose tolerance test, after an overnight (21 hours) fast, mice (n=10 per group) were weighed and injected i.p. with glucose (10% D glucose solution, Sigma, 1 g/kg). Glucose levels were determined at 0, 15, 30, 60, and 120 min after insulin or glucose administration in blood from the tail vein by using the Contour blood glucose meter (Bayer, Elkhart, Ind.) with Contour blood glucose test strips.

[2] = test system: mice with high-fat diet-induced obesity; test: Plasma cytokine/adipokine levels in high-fat diet-fed mice (MILLIPLEX mouse adipokine panel; adiponectin immunoassay); settings: 4 mg/kg i.p. once daily for 4 weeks
Protocol: (§2) C57BL/6J mice were initially fed a regular chow for 10 days and then switched to a high-fat diet (D12492, 60% kcal from fat, shown in FIG. 2) or its corresponding low-fat control diet (D12450B, 10% kcal from fat, shown in FIG. 1) (Research Diets, New Brunswick, N.J.) for 12 weeks. After the first 8 weeks mice on the high-fat diet were divided into 2 groups and treated with saline (i.p. once daily) or galantamine (Galanthamine Hydrobromide, EMD Biosciences, Inc., La Jolla, Calif., USA) (4 mg/kg, i.p., once daily) for the remaining 4 weeks of the study. In parallel, mice on the low-fat (control) diet were treated with saline. Body weight and food intake were determined on a weekly basis by trained personnel of the Center for Comparative Physiology at the Feinstein Institute, who were blinded to treatment groups. At the end of the experimental time period mice were euthanized and abdominal adiposity, liver weight, cytokine and adipokine levels, metabolic profile, insulin resistance, and liver histology were evaluated. In a separate experiment, groups of mice were fed and treated and body weights and food intake recorded as described above. At the end of the experimental time period mice were subjected to the insulin sensitivity test or the glucose tolerance test as described below.
(§3) After an overnight fast and following body weight and blood glucose determination mice were euthanized by CO2 asphyxiation. Heparinized blood was obtained by cardiac puncture and centrifuged within 30 min at 5,000 rpm for 10 min. Visceral adipose tissues and liver were harvested, rinsed with saline, and weighed. One piece of liver (the biggest lobe) was fixed in formalin for further H&E staining. Plasma and visceral fats (were frozen on dry ice) were transferred at −20° C. prior to further manipulations.
(§4) Plasma samples were sent to Millipore and plasma insulin, leptin, MCP-1, PAI-1, resistin, TNF and IL-6 levels were determined by using the Millipore's MILLIPLEX map mouse adipokine panel assay with the following detection sensitivity limits: leptin 16.71 pg/mL; resistin 1.79 pg/mL; IL-6 1.89 pg/mL; TNF 4.39 pg/mL; MCP-1 14.4 pg/mL; PAI-1 16.4 pg/mL, insulin 42.2 pg/mL. Plasma samples were sent to IDEXX and plasma levels of total cholesterol and ALT were determined by using IDEXX's Olympus analyzers and spectrophotometric determination. Plasma adiponectin was measured by using the mouse adiponectin/Acrp30 immunoassay (R&D Systems) according to the manufacturer's recommendations.

[3] = test system: mice with high-fat diet-induced obesity; test: Fasting blood glucose, plasma insulin, HOMA-IR and plasma total cholesterol in high-fat diet-fed mice; settings: 4 mg/kg i.p. once daily for 4 weeks, HFD-G vs HFD-S mice
Protocol: as §2
Blood glucose during the study was measured by nicking the tails and using the Contour blood glucose meter (Bayer, Elkhart, Ind.) with Contour blood glucose test strips according to the manufacturer's recommendations. After blood collection the cuts were compressed with sterile gauze until bleeding termination.
as §4
Insulin resistance was evaluated by using glucose and insulin level values and by applying the homeostatic model assessment-insulin resistance (HOMA-IR) formula, presented in Mlinar et al. (2007) Molecular mechanisms of insulin resistance and associated diseases. Clin Chim Acta 375:20-35, the relevant teachings of which is incorporated herein by reference. Specifically, the expression used to evaluate insulin resistance is: HOMA index=insulin (mU/L)×[glucose (mmol/L)/22.5] […]

[4] = test system: mice with high-fat diet-induced obesity; test: Insulin sensitivity test (IST) in high-fat diet-fed mice
Protocol: as §1

[5] = test system: mice with high-fat diet-induced obesity; test: Body weight, food intake and abdominal adiposity in high-fat diet-fed mice; settings: for body weight: 4 mg/kg i.p. once daily, FIG. 3A
Protocol: (§5) Experiments with male C57BL/6J mice (5-6 month old, Jackson Lab) were performed in accordance with the NIH Guidelines under protocols approved by the IACUC Committee of the Feinstein Institute for Medical Research, North Shore-LIJ Health System, Manhasset, N.Y., USA.
as §2, §3

[6] = test system: mice with high-fat diet-induced obesity; test: Fatty liver manifestations (plasma ALT, liver weight, hepatic steatosis on H&E liver sections) in high-fat diet-fed mice; settings: 4 mg/kg i.p. once daily for 4 weeks
Protocol: as §5
as §2, with “At the end of the experimental time period mice were subjected to the insulin sensitivity test or the glucose tolerance test as described below.” left out
as §4
Formalin fixed liver tissue was imbedded in paraffin, sliced and then liver tissue sections were subjected to hematoxylin and eosin (H&E) staining and microscopic slides prepared. Hepatic steatosis was determined by microscopic evaluation of H&E stained liver sections for lipid accumulation by using Zeiss apotome and semi-quantified by applying a previously implemented grading criteria: no fat accumulation (grade 0); less than 33% fat-containing hepatocytes (grade 1); less than 66% fat-containing hepatocytes (grade 2); more than 66% fat-containing hepatocytes (grade 3).

[7] = test system: mice with high-fat diet-induced obesity; test: Separate experiment: body weight and food intake in high-fat diet-fed mice before IST and GTT; settings: 4 mg/kg i.p. once daily for 4 weeks
Protocol: as §2, with “At the end of the experimental time period mice were subjected to the insulin sensitivity test or the glucose tolerance test as described below.” left out
Separate groups of mice were fed and treated and body weights and food intake recorded as described above (in Experimental design). […]

[8] = 4 mg/kg i.p. once daily for 4 weeks, HFD-G group, Table 1 in FIG. 4

## COc1ccc2c3c1O[C@H]1C[C@@H](O)C=C[C@@]31CCN(C)C2 [galantamine]
[1]; FIG. 13B
  area under the curve of the GTT data: significantly lower
[1]; glucose 1 g/kg i.p. after overnight fast, FIG. 13A
  blood glucose levels in GTT: suppressed blood glucose levels
[2]; HFD-G group, no value above the assay sensitivity limit
  plasma TNF levels: < 4.39 pg/mL
[2]; HFD-G mice, FIG. 5C
  plasma MCP-1 levels: significantly reduced
[2]; HFD-G vs HFD-S mice, FIG. 5A
  plasma IL-6 levels: significantly reduced
[2]; HFD-G vs HFD-S mice, FIG. 5B
  plasma leptin levels: significantly reduced
[2]; HFD-G vs HFD-S mice, FIG. 5D
  plasma resistin levels: significantly lowered
[2]; HFD-G vs HFD-S mice, FIG. 5F
  plasma adiponectin levels: a certain increase
[2]; HFD-S higher than LFD-S and HFD-G mice, FIG. 5E
  plasma plasminogen activator inhibitor-1 (PAI-1) levels: none of these differences were statistically significant
[3]; FIG. 6A
  fasting blood glucose levels: significantly reduced
[3]; FIG. 6B
  plasma insulin levels: significantly reduced
[3]; FIG. 6D
  plasma total cholesterol levels: significantly decreased
[3]; calculated from glucose and insulin, FIG. 6C
  insulin resistance (HOMA-IR): reversed this insulin resistance
[4]; HFD-G as compared to HFD-S mice, insulin 0.5 units/kg i.p. after overnight fast
  blood glucose levels in IST at 15 min and 30 min: significantly lower
[4]; HFD-G as compared to LFD-S mice, insulin 0.5 units/kg i.p. after overnight fast
  blood glucose levels in IST at 120 min: significantly lower
[4]; HFD-G mice after insulin 0.5 units/kg i.p., unchanged at 60 min, increased at 120 min, FIG. 12
  time of lowest blood glucose levels in IST: 30 min
[5]; [8]
  mesenteric adipose tissue weight: significantly reduced
  retroperitoneal/perirenal adipose tissue weight: significantly reduced
[5]; 4 mg/kg i.p. once daily for 4 weeks, HFD-G vs HFD-S group during treatment, FIG. 3B
  food intake: additional suppression of food intake
[5]; HFD-G mice at week 9 as compared to week 8, then sustained
  body weight: lower after the first week of treatment
[5]; HFD-G vs HFD-S mice at weeks 11 and 12
  body weight: lower than the weight of HFD-S mice
[6]; HFD-G mice, H&E liver sections, FIG. 9
  hepatocyte fat accumulation (steatosis), microscopic observations: decreased lipid accumulation
[6]; HFD-G vs HFD-S mice, FIG. 7B
  liver weight: significant liver weight decrease
[6]; HFD-G vs HFD-S mice, end of 12 week study, FIG. 7A
  plasma alanine aminotransferase (ALT) levels: significantly decreased
[6]; HFD-G vs HFD-S mice, steatosis grade 0-3, FIG. 10
  lipid accumulation in livers, semi-quantitative analysis: significantly reduced
[7]; HFD-G mice, while HFD-S continued to increase, FIG. 11A
  body weight: decreased
[7]; HFD-G vs HFD-S group, FIG. 11B
  food intake: significantly lower
